Measurements from PubChem BioAssay AID1963849 (Molecular Pharmacology Branch, DTP, NCI, 2024).
pIC50: −log10 of the molar value.

Tested on: 299254-011-R-J1-PDC complex spheroid viability
Assay: Anticancer human tumor 299254-011-R-J1-PDC patient-derived melanoma cell line growth inhibition [POLQ]
Conditions: for pIC50: curve of first compound; for viability, T/C: stronger effect = lower value
In short: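 Three-cell-type spheroids modelling solid tumor plus stroma served as the readout system; POL inhibitors were tested individually and in combination, concentration ranges set by clinical Cmax where known.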

[1] = second compound 0.0316 µM, first compound 0.0316 µM
[2] = second compound 0.0316 µM, first compound 0.1 µM
[3] = second compound 0.0316 µM, first compound 0.316 µM
[4] = second compound 0.0316 µM, first compound 1 µM
[5] = second compound 0.0316 µM, first compound 3.16 µM
[6] = second compound 0.0316 µM, first compound 10 µM
[7] = second compound 0.1 µM, first compound 0.0316 µM
[8] = second compound 0.1 µM, first compound 0.1 µM
[9] = second compound 0.1 µM, first compound 0.316 µM
[10] = second compound 0.1 µM, first compound 1 µM
[11] = second compound 0.1 µM, first compound 3.16 µM
[12] = second compound 0.1 µM, first compound 10 µM
[13] = second compound 0.316 µM, first compound 0.0316 µM
[14] = second compound 0.316 µM, first compound 0.1 µM
[15] = second compound 0.316 µM, first compound 0.316 µM
[16] = second compound 0.316 µM, first compound 1 µM
[17] = second compound 0.316 µM, first compound 3.16 µM
[18] = second compound 0.316 µM, first compound 10 µM
[19] = second compound 1 µM, first compound 0.0316 µM
[20] = second compound 1 µM, first compound 0.1 µM
[21] = second compound 1 µM, first compound 0.316 µM
[22] = second compound 1 µM, first compound 1 µM
[23] = second compound 1 µM, first compound 3.16 µM
[24] = second compound 1 µM, first compound 10 µM
[25] = second compound 3.16 µM, first compound 0.0316 µM
[26] = second compound 3.16 µM, first compound 0.1 µM
[27] = second compound 3.16 µM, first compound 0.316 µM
[28] = second compound 3.16 µM, first compound 1 µM
[29] = second compound 3.16 µM, first compound 3.16 µM
[30] = second compound 3.16 µM, first compound 10 µM
[31] = second compound 10 µM, first compound 0.0316 µM
[32] = second compound 10 µM, first compound 0.1 µM
[33] = second compound 10 µM, first compound 0.316 µM
[34] = second compound 10 µM, first compound 1 µM
[35] = second compound 10 µM, first compound 3.16 µM
[36] = second compound 10 µM, first compound 10 µM
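Note: spheroids exposed to drugs for one week before measurement.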
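Throughout, for viability, T/C: percent viability relative to DMSO vehicle control taken as 100%.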

CCCS(=O)(=O)Nc1ccc(F)c(C(=O)c2c[nH]c3ncc(-c4ccc(Cl)cc4)cc23)c1F + COC1C(OC(N)=O)C(O)C(Oc2ccc3c(O)c(NC(=O)c4ccc(O)c(CC=C(C)C)c4)c(=O)oc3c2C)OC1(C)C
pIC50 (second compound 0.0316 µM): < 5.00
pIC50 (second compound 0.1 µM): < 5.00
pIC50 (second compound 0.316 µM): < 5.00
pIC50 (second compound 1 µM): < 5.00
pIC50 (second compound 3.16 µM): < 5.00
pIC50 (second compound 10 µM): < 5.00
viability, T/C [1]: 116%
viability, T/C [2]: 94.3%
viability, T/C [3]: 107%
viability, T/C [4]: 136%
viability, T/C [5]: 107%
viability, T/C [6]: 69.6%
viability, T/C [7]: 111%
viability, T/C [8]: 97.4%
viability, T/C [9]: 118%
viability, T/C [10]: 105%
viability, T/C [11]: 123%
viability, T/C [12]: 63.8%
viability, T/C [13]: 93.6%
viability, T/C [14]: 99.2%
viability, T/C [15]: 120%
viability, T/C [16]: 117%
viability, T/C [17]: 121%
viability, T/C [18]: 68.8%
viability, T/C [19]: 94%
viability, T/C [20]: 98.4%
viability, T/C [21]: 99.2%
viability, T/C [22]: 107%
viability, T/C [23]: 118%
viability, T/C [24]: 67.5%
viability, T/C [25]: 108%
viability, T/C [26]: 113%
viability, T/C [27]: 116%
viability, T/C [28]: 126%
viability, T/C [29]: 124%
viability, T/C [30]: 82.8%
viability, T/C [31]: 106%
viability, T/C [32]: 112%
viability, T/C [33]: 110%
viability, T/C [34]: 118%
viability, T/C [35]: 118%
viability, T/C [36]: 83.4%

COc1cc(C2c3cc4c(cc3C(OC3OC5COC(C)OC5C(O)C3O)C3COC(=O)C23)OCO4)cc(OC)c1O (stereo not drawn) + Cc1cccc(N(C)C(=O)C2C(O)CCN2c2nc(C)cc(C(F)(F)F)c2C#N)c1
pIC50 (second compound 0.0316 µM): 5.02
pIC50 (second compound 0.1 µM): < 5.00
pIC50 (second compound 0.316 µM): < 5.00
pIC50 (second compound 1 µM): < 5.00
pIC50 (second compound 3.16 µM): < 5.00
pIC50 (second compound 10 µM): < 5.00
viability, T/C [1]: 87.6%
viability, T/C [2]: 89.2%
viability, T/C [3]: 102%
viability, T/C [4]: 86.8%
viability, T/C [5]: 75.6%
viability, T/C [6]: 48.9%
viability, T/C [7]: 98%
viability, T/C [8]: 91.9%
viability, T/C [9]: 107%
viability, T/C [10]: 87.2%
viability, T/C [11]: 68%
viability, T/C [12]: 54.8%
viability, T/C [13]: 94.6%
viability, T/C [14]: 102%
viability, T/C [15]: 101%
viability, T/C [16]: 99.5%
viability, T/C [17]: 70%
viability, T/C [18]: 59.5%
viability, T/C [19]: 107%
viability, T/C [20]: 93.1%
viability, T/C [21]: 91.6%
viability, T/C [22]: 79.2%
viability, T/C [23]: 76%
viability, T/C [24]: 58%
viability, T/C [25]: 98.5%
viability, T/C [26]: 86.5%
viability, T/C [27]: 88%
viability, T/C [28]: 97.3%
viability, T/C [29]: 74.8%
viability, T/C [30]: 53.9%
viability, T/C [31]: 84.5%
viability, T/C [32]: 86.7%
viability, T/C [33]: 86.1%
viability, T/C [34]: 82.8%
viability, T/C [35]: 60.2%
viability, T/C [36]: 59.2%

Cn1ncnc1[C@H]1c2n[nH]c(=O)c3cc(F)cc(c23)N[C@@H]1c1ccc(F)cc1 + Nc1ccc(C#CCN(C(=O)Cc2ncc(C(F)(F)F)cc2C(F)(F)F)c2ccc(F)cc2)nn1
pIC50 (second compound 0.0316 µM): < 7.00
pIC50 (second compound 0.1 µM): < 7.00
pIC50 (second compound 0.316 µM): < 7.00
pIC50 (second compound 1 µM): < 7.00
pIC50 (second compound 3.16 µM): < 7.00
pIC50 (second compound 10 µM): < 7.00
viability, T/C (second compound 0.0316 µM, first compound 0.000316 µM): 107%
viability, T/C (second compound 0.0316 µM, first compound 0.001 µM): 101%
viability, T/C (second compound 0.0316 µM, first compound 0.00316 µM): 97.2%
viability, T/C (second compound 0.0316 µM, first compound 0.01 µM): 98.6%
viability, T/C [1]: 99.9%
viability, T/C [2]: 108%
viability, T/C (second compound 0.1 µM, first compound 0.000316 µM): 115%
viability, T/C (second compound 0.1 µM, first compound 0.001 µM): 94%
viability, T/C (second compound 0.1 µM, first compound 0.00316 µM): 111%
viability, T/C (second compound 0.1 µM, first compound 0.01 µM): 95.5%
viability, T/C [7]: 107%
viability, T/C [8]: 101%
viability, T/C (second compound 0.316 µM, first compound 0.000316 µM): 107%
viability, T/C (second compound 0.316 µM, first compound 0.001 µM): 113%
viability, T/C (second compound 0.316 µM, first compound 0.00316 µM): 95.1%
viability, T/C (second compound 0.316 µM, first compound 0.01 µM): 113%
viability, T/C [13]: 125%
viability, T/C [14]: 89.9%
viability, T/C (second compound 1 µM, first compound 0.000316 µM): 107%
viability, T/C (second compound 1 µM, first compound 0.001 µM): 106%
viability, T/C (second compound 1 µM, first compound 0.00316 µM): 102%
viability, T/C (second compound 1 µM, first compound 0.01 µM): 107%
viability, T/C [19]: 102%
viability, T/C [20]: 113%
viability, T/C (second compound 3.16 µM, first compound 0.000316 µM): 103%
viability, T/C (second compound 3.16 µM, first compound 0.001 µM): 103%
viability, T/C (second compound 3.16 µM, first compound 0.00316 µM): 94.4%
viability, T/C (second compound 3.16 µM, first compound 0.01 µM): 105%
viability, T/C [25]: 98.2%
viability, T/C [26]: 105%
viability, T/C (second compound 10 µM, first compound 0.000316 µM): 96.3%
viability, T/C (second compound 10 µM, first compound 0.001 µM): 93.3%
viability, T/C (second compound 10 µM, first compound 0.00316 µM): 88.1%
viability, T/C (second compound 10 µM, first compound 0.01 µM): 102%
viability, T/C [31]: 87.2%
viability, T/C [32]: 90.7%

CC1COCCN1c1cc(C2(O)CC3CCC(C2)O3)c2cnn(-c3ccn[nH]3)c2n1 (stereo not drawn) + COC1C(OC(N)=O)C(O)C(Oc2ccc3c(O)c(NC(=O)c4ccc(O)c(CC=C(C)C)c4)c(=O)oc3c2C)OC1(C)C
pIC50 (second compound 0.0316 µM): 6.87
pIC50 (second compound 0.1 µM): 6.74
pIC50 (second compound 0.316 µM): 6.69
pIC50 (second compound 1 µM): 6.79
pIC50 (second compound 3.16 µM): 6.80
pIC50 (second compound 10 µM): 6.75
viability, T/C [1]: 102%
viability, T/C [2]: 53.5%
viability, T/C [3]: 35.8%
viability, T/C [4]: 20.7%
viability, T/C [5]: 14.8%
viability, T/C [6]: 11.1%
viability, T/C [7]: 86.4%
viability, T/C [8]: 64.8%
viability, T/C [9]: 36.6%
viability, T/C [10]: 18.9%
viability, T/C [11]: 16.8%
viability, T/C [12]: 11.5%
viability, T/C [13]: 88.9%
viability, T/C [14]: 75.6%
viability, T/C [15]: 34%
viability, T/C [16]: 20.4%
viability, T/C [17]: 14%
viability, T/C [18]: 11.6%
viability, T/C [19]: 109%
viability, T/C [20]: 56.5%
viability, T/C [21]: 37.4%
viability, T/C [22]: 27.1%
viability, T/C [23]: 15.6%
viability, T/C [24]: 10.2%
viability, T/C [25]: 91.5%
viability, T/C [26]: 61.1%
viability, T/C [27]: 33.1%
viability, T/C [28]: 20.4%
viability, T/C [29]: 13%
viability, T/C [30]: 11.1%
viability, T/C [31]: 87.6%
viability, T/C [32]: 60.5%
viability, T/C [33]: 40.7%
viability, T/C [34]: 17.9%
viability, T/C [35]: 16.6%
viability, T/C [36]: 10.2%
